Target: T1, E. coli TEM-1 β-lactamase (Escherichia coli, UniProt P62593)
T1 construct: made in house; host or cells: E. coli BL21(DE3); whole overnight culture used undiluted, not purified
Test: Drug screening: E166Cf fluorescence in presence of bacterial β-lactamase culture
Format: biochemical
Set-up: key: −: Decline in fluorescence signal (presence of beta-lactam hydrolysis); +: No decline in fluorescence signal (absence of beta-lactam hydrolysis)
Details: E. coli TEM-1 culture, undiluted; antibiotic 1.0×10^−4 M; E166Cf 1.2×10^−7 M
Protocol: The use of the E166Cf enzyme in screening bacterial β-lactamases against various β-lactam antibiotics was investigated. The principle of our method is that when both E166Cf and bacterial β-lactamase are incubated with ‘β-lactamase-unstable’ antibiotics, the fluorescence of the E166Cf enzyme will be suppressed because of the greater catalytic efficiency of the bacterial enzyme. In contrast, when bacterial β-lactamases are screened against ‘β-lactamase-resistant’ antibiotics, the fluorescence of the E166Cf enzyme will be enhanced because of the poor hydrolytic activity of the bacterial enzyme. Thus, any β-lactam antibiotic that causes the labeled enzyme to increase its fluorescence intensity in the presence of bacterial β-lactamases can be used in clinical treatments.
The TEM-1 β-lactamase was expressed in E. coli. BL21(DE3). Preparation of the TEM-1 β-lactamase was performed as follows. A bacterial strain was streaked on an agar plate containing 100 μg/ml ampicillin, and the plate was incubated at 37° C. for 24 h. A single bacterial colony from the plate was inoculated into 100 ml of sterilized LB broth (28 g/l) which was then incubated at 37° C. with shaking at 280 rpm overnight. After overnight incubation, the bacterial culture was harvested and stored at −20° C.
Fluorescence measurements of the E166Cf enzyme in the presence of bacterial cultures and β-lactam antibiotics were performed on a FLUOstar microplate reader (BMG Labtechnologies) equipped with two sample injectors. Excitation and emission filters of 485 and 520 nm respectively were used. For B. cereus penPC β-lactamase, B. licheniformis penP β-lactamase and B. cereus β-lactamase II, the labeled enzymes were mixed with the bacterial cultures, and the mixtures were made up to 300 μl with 50 mM phosphate buffer (pH 7.0) in a 96-well microtiter plate (Corning Costar). For the purpose of comparison, B. subtilis cultures, which produced no β-lactamase, were set up as negative controls. For E. coli. TEM-1 β-lactamase, the labeled enzymes were mixed with the bacterial cultures without dilution. E. coli. cultures, which produced no β-lactamase, were set up as negative controls for comparison. The antibiotics were then added to the bacterial samples by the injectors.
The results from the time-resolved fluorescence measurements of the labeled enzyme (1.2×10^−7 M) in the presence of various bacterial cultures and β-lactam antibiotics (1.0×10^−4 M) are shown in FIGS. 23 to 26.

T1 sequence (P62593 24-286 limits assumed): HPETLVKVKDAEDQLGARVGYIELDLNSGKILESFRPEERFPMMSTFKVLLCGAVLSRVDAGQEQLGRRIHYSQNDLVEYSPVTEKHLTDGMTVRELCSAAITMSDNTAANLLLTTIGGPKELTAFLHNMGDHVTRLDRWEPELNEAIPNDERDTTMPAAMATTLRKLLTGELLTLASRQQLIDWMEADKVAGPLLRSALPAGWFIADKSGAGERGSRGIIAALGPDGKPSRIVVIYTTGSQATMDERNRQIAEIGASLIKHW

Q: Which “fluorescence signal of E166Cf (beta-lactam hydrolysis)” value does the source give for `CC1(C)S[C@@H]2[C@H](NC(=O)Cc3ccccc3)C(=O)N2[C@H]1C(=O)O` [Penicillin G, penicillin G] here?
A: −

Reference: patent publication US7323303B2, “Modified β-lactamases and uses thereof” (priority 2003, dated 2008)
